Measured values taken from article PMC5282547, “The Proline/Arginine Dipeptide from Hexanucleotide Repeat Expanded C9ORF72 Inhibits the Proteasome” (eNeuro, 2017).
Read-outs that look alike come from different tables or passages of the source. Where no end group is shown, it is not given here.

Key:
Dendra2 = assay: Optical pulse labeling of Dendra2; assay type: cell-based, rat; details: 2 µM peptide; vehicle 29.6 h; not significantly different from vehicle
Procedure: Primary spinal neurons were dissected from E15 rat pups and cultured at a density of 2.5 × 10^5 cells/ml on a laminin/poly-lysine-coated 96-well plate in motor neuron media. Four days after plating, neurons were transfected with Lipofectamine 2000 (Invitrogen). DNA-Lipofectamine mixtures were incubated with neurons for 20 min followed by rinsing. Neurons were then placed in 100 µL of conditioned media that was collected immediately prior to transfection and half fresh motor neuron media containing 4 µM PR20, resulting in a final concentration of 2 µM PR20.
Optical pulse labeling experiments were performed using an automated microscopy platform previously described by [Arrasate et al. (2004)] and [Barmada et al. (2014)]. A Nikon Eclipse Ti inverted microscope equipped with a PerfectFocus system, 20× objective lens and an Andor iXon3 897 EMCCD camera were used to acquire images. Samples were illuminated with a Sutter Instruments Lamba XL lamp. The microscope and related components were encased in custom-built plexiglass enclosure set to maintain the temperature at 37°C and CO2 at 5%. Semrock GFP and TRITC filters were used for excitation and detection. A Semrock 405-nm long-pass filter was used for photoactivation. Image acquisition and stage movements were accomplished in an automated fashion using µManager and original code written in BeanShell. For all experiments, photoconversion occurred 24 h following transfection. GFP and TRITC images were acquired immediately following activation and subsequently every 2 h for 12 h. Images were acquired in a similar 12-h window starting 48 h after PR20 treatment. Using in-house image analysis scripts, neuronal cell bodies were identified based on their fluorescent intensity and morphology, and a ROI was drawn around the perimeter of each cell at each time. Single-cell TRITC intensity values were recorded and used to fit a first order exponential decay curve for individual neurons and calculate a Dendra2-light chain 3 (LC3) half-life for each cell. […]

[1] = tested on: mixed spinal cord cultures; assay: Cellular accumulation and disposal of HA-tagged DPR (immunoblot of cell lysates, continuous exposure or 2-h pulse-chase)
Procedure: Confluent dishes of astrocyte neuron cocultures at 37°C had volumes equalized to 2 ml of cell culture media each. Approximately 300 μl of media from each dish was removed and pooled with other dishes, PR20 stock solution was added, and the mixture was then added back to the corresponding culture dish, so that each dish contained a final concentration of 2 μM. All plates were incubated with PR20 for 48 h.
Lysis buffer was prepared containing 1% (v/v) protease inhibitor cocktail, 1% (v/v) PMSF, and 1% (v/v) leucine in 1% RIPA buffer solution on ice. Culture dishes were washed once with ice-cold PBS to remove any remaining media. A total of 125 μl (35-mm dish), 150 μl (6-well plate), or 250 μL (60-mm dish) of lysis buffer was added to each plate, and cells were scraped into a cold 1.5-ml tube. Samples were sonicated for 30 s at 20% intensity, placed on a rotator at 4°C for 20 min, and then centrifuged for 15 min at 13,200 rpm. Supernatant was then removed from each tube for further analysis.
We investigated the fate of PR20 in mixed spinal cord cultures through immunoblotting and immunocytochemistry. […] To gain further insight into the kinetics of the observed decrease in PR20 levels in cell lysates over time, we pulsed cells with 2 µM PR20 for 2 h, washed, replaced with fresh media (lacking PR20), and made cell lysates at regular intervals thereafter. […] To more easily follow GR20 by immunoblotting, we applied 10 µM GR20 to cultures and performed the same kinetic analysis as described in Figure 1D.

[2] = tested on: KDEL-tagged chaperones BiP and PDI; assay: Immunoblot for ER stress; assay type: cell-based, rat; details: 2 µM, 48 h, immunoblot normalized to actin
Procedure: All plates were incubated with PR20 for 48 h.

[3] = tested on: purified affinity-purified human proteasomes; assay type: biochemical; details: for Δ0–5 of Ub-Sic1 signal compared with the no PR20 group: 20 nM Ub-Sic1, n = 3, p < 0.05
Procedure: Polyubiquitylated Sic1 proteins with PY degron motifs and T7 tag (Ub-Sic1) was prepared as previously described by [Choi et al. (2016)]. Different concentrations of PR20 peptides (0, 50, or 500 nM) and purified affinity-purified human proteasomes (5 nM) were preincubated 20 min in proteasome assay buffer [50 mM Tris-HCl (pH 7.5), 100 mM NaCl, 10% glycerol, 2 mM ATP, 10 mM MgCl2, and 1 mM DTT] on ice, and 20 nM reconstituted Ub-Sic1 was subsequently added. Degradation of Ub-Sic1 and PR20 peptides was monitored by immunoblotting using anti-T7 and anti-HA antibodies, respectively. Band intensities were quantified using ImageJ software (version 1.48k, NIH) from three independent immunoblotting assays (n = 3).

motor neurons = assay: Motor neuron survival in mixed spinal cord cultures (SMI32 counts), LD50 determination; assay type: cell-based, rat
Procedure: Mixed spinal cord neuron cultures were prepared as described previously ([Mojsilovic-Petrovic et al., 2006]). Briefly, an astrocyte feeder layer was prepared from the cortex of newborn Sprague Dawley rat pups [postnatal day 2 (P2)] and grown to ∼80% confluency. Subsequently, dissociated embryonic day 15 (E15) spinal cord neurons were added. One to two days later, AraC ([…]) (catalog #C6645; Sigma) was added for 24 h to arrest astrocyte proliferation. Cultures were maintained in glia-conditioned medium supplemented with the following trophic factors (1.0 ng/ml each): human neurotrophin-3, human neurotrophin-4, human brain-derived neurotrophic factor, and rat ciliary neurotrophic factor (Alomone Labs). Half of the culture medium was replaced on a biweekly basis.
Days in vitro (DIV)14 mixed spinal cord cultures were exposed to PR20 or GR20 by addition of synthetic peptide to the media one time. Cultures were fixed 5 d later with freshly prepared 4% paraformaldehyde for 20 min, washed extensively with 0.1 M PBS, pH 7.4, and immunostained with SMI32 to identify motor neurons. Immunopositive cells >25 µm in diameter are motor neurons based on their costaining for peripherin, ChAT, and islet 1/2 ([Mojsilovic-Petrovic et al., 2006]). Motor neurons were counted in three nonoverlapping, randomly selected fields on a coverslip using a 5[times objective, and the values from a single coverslip averaged. The results of 3-5 independently treated coverslips were the basis and means and variance used in statistical analysis. Each experiment was repeated with independently generated culture 4+ times ([Mojsilovic-Petrovic et al., 2006]).
Motor neuron survival 5 d later was determined. Once the approximate LD50 was determined, we repeated the analysis with more closely spaced concentrations for a more precise definition of the LD50. Determination of the LD50 of MG132 was accomplished in an identical manner.

[4] = tested on: total ubiquitylated protein; assay: Ubiquitylation assay (total cellular ubiquitin immunoblot); assay type: cell-based, rat; details: 2 µM, 2, 4, 8, 16 h; significant at 2, 8 and 16 h
Procedure: The ubiquitylation assay involved acute time point treatments with PR20. 16 h prior to scheduled lysis, two dishes were treated to a final concentration of 2 μM PR20 using the methods described in the PR20 treatment for biochemical assays subsection. This was repeated 8 h prior to lysis, 4 h prior to lysis, and 2 h prior to lysis. Samples were then lysed in RIPA buffer as described in Cell lysis for ubiquitin blots and processed for Western blot analysis.
Ubiquitin analysis requires the use of deubiquitinase (DUB) inhibitors. Lysis without these inhibitors runs the risk of degradation of the substrates to be targeted. As such, N-ethylmaleimide (Sigma), a potent DUB inhibitor, was used in the lysis buffer. […] The remainder of the lysis procedure follows Cell lysis.

[5] = 2 µM in media, continuous exposure

PRPRPRPRPRPRPRPRPRPRPRPRPRPRPRPRPRPRPRPRYPYDVPDYA [PR20]
Dendra2 half-life (Dendra2): 30.5 h | time of maximum immunoblot signal in cell lysates [1, 5]: 1.0 to 2.0 h | time point at which immunoblot signal is undetectable [1, 5]: 48 h | time at which peptide is first detectable in cell lysates ([1]; 2 µM in media, continuous exposure, anti-HA immunoblot): approximately 0.5 h | decrement in peptide abundance with versus without bafilomycin A1 in the chase media ([1]; 2-h pulse with 2 µM, chase with Baf A1 400 nM): the same | loss of peptide with MG132 versus vehicle in the chase media ([1]; 2-h pulse with 2 µM, chase with MG132 5 µM): indistinguishable | lysate fractions with detectable Western blot signal at the 2-h time point ([1]; 2-h pulse-chase, 2 µM): soluble and insoluble fractions | time point by which signal diminishes to a barely detectable level ([1]; 2-h pulse-chase, 2 µM): 6 h | half-life of dipeptide in cells ([1]; immunoblot of mixed spinal cord culture lysates): on the orders of hours | ER stress (BiP and PDI abundance) versus vehicle [2]: no statistically significant differences | degradation of the peptide by purified 26S proteasomes ([3]; 0, 5 and 15 min, anti-HA immunoblot, pH 7.5 assay buffer with ATP): not itself degraded | Δ0–5 of Ub-Sic1 signal compared with the no PR20 group ([3]; 1:10 proteasomes:PR20 (5 nM proteasomes, 50 nM PR20)): statistically significant less | Δ0–15 of Ub-Sic1 signal compared with the no PR20 group ([3]; 1:10 proteasomes:PR20, n = 3, p < 0.05): statistically significantly less | Δ0–5 of Ub-Sic1 signal compared with the no PR20 group ([3]; 1:100 proteasomes:PR20 (5 nM proteasomes, 500 nM PR20)): statistically significant less | Δ0–15 of Ub-Sic1 signal compared with the no PR20 group ([3]; 1:100 proteasomes:PR20, n = 3, p < 0.05): statistically significantly less | motor neuron death at the 48-h time point (motor neurons; 2 µM PR20, 48 h): No significant motor neuron death | LD50, death of motor neurons (motor neurons; single application to DIV14 mixed spinal cord cultures on astrocyte feeder layer, motor neuron survival 5 d later): 2.0 µM | total ubiquitylated protein levels over time [4]: progressive increase
